Holding throughout (format): cell-based
Assay [1] relates to L. donovani HU3 strain in mouse peritoneal macrophages. The experiment in a line: Assay for inhibition of parasitemia of Leishmania donovani in mouse macrophages (SYBR Green nuclei count, high-content imaging). Particulars: Leishmania donovani, Peritoneal macrophage, read-out: L. donovani in Mouse Macrophages EC50. In a few lines: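 Parasite numbers were counted from SYBR Green-stained nuclei imaged by high-content microscopy after paraformaldehyde fixation and Triton permeabilization. Before this, compound was applied for 5 days at 37° C to BALB/c peritoneal macrophages (2×10^4/well) that had been exposed 24 h to 4×10^5 L. donovani HU3 amastigotes harvested from infected mouse spleens.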

Assay [2] relates to Leishmania donovani axenic amastigote. The experiment in a line: In vitro assay for growth inhibition of Leishmania donovani axenic amastigote (Cell TiterGlo luminescence). Particulars: Leishmania donovani, L. donovani axenic amastigotes in vitro; read-out: L. donovani amastigotes EC50. A digest of the protocol:
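Compound-treated wells received 9600 axenic amastigotes in RPMI 1640-based medium at pH 5.5 (37 °C, 5% CO2). Growth measured as ATP luminescence (CellTiter-Glo) after 2-day incubation; DMSO and reference compounds served as controls.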
A general note: In ATP-based viability assays light output follows the ATP content of the culture.

In assay [3] the test system is Trypanosoma brucei brucei (Lister 427) strain. The experiment in a line: Assay for growth inhibition against Trypanosoma brucei brucei (Cell TiterGlo ATP luminescence). Particulars: Trypanosoma brucei, T. brucei brucei (Lister 427); read-out: T. Brucei (HAT) EC50. A digest of the protocol:
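Growth read-out is cellular ATP by CellTiter-Glo luminescence, measured 30 min after reagent addition, following 2-day incubation at 37 °C in CO2. Parasites (10,000/mL, HMI-9 plus 10% FBS and 10% serum plus) faced 10 threefold dilutions in duplicate; IC50 taken as 50% growth inhibition versus untreated.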

In assay [4] the test system is Trypanosoma cruzi amastigotes cultured in 3T3 fibroblast cells. The assay is described as follows: Assay for growth inhibition of kinetoplastid parasite Trypanosoma cruzi (beta-galactosidase Tulahuen strain, CPRG readout). Particulars: Trypanosoma cruzi, T. cruzi amastigotes in 3T3 fibroblast cells, read-out: Buckner infectious T. cruzi EC50. A digest of the protocol: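 3T3 fibroblasts (1,000 cells/well) plated overnight, treated with compound in DMSO, then infected with 10,000 Lac-Z-expressing Tulahuen trypomastigotes. After 6 days, 0.6 mM CPRG with 0.6% NP-40 added for 2 h at room temperature; absorbance gives relative intracellular amastigote numbers. Benznidazole and nifurtimox serve as positive controls.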

Setting [5] is: L. donovani in mouse peritoneal macrophages.

Each structure is given as a SMILES string. Where two headings read alike, the source gives them in different places.

For the compound `O=C(Nc1ccc(F)c(-n2cc3cc(-c4ccccn4)cnc3n2)c1)N1CCC1` [Compound 99, N-{4-fluoro-3-[5-(pyridin-2-yl)-2H-pyrazolo[3,4-b]pyridin-2-yl]phenyl}azetidine-1-carboxamide], the EC50 (commonly the concentration giving half of the maximal effect) is 2 nM in assay [1] (setting [5]), 1.3 nM in assay [2], greater than 50000 nM in assay [3] and 1 nM in assay [4] (Fibroblast).

With `Cc1nc(C)c(C(=O)Nc2ccc(F)c(-n3cc4cc(C5CCC5)cnc4n3)c2)o1` [Compound 101, N-(3-{5-cyclobutyl-2H-pyrazolo[3,4-b]pyridin-2-yl}-4-fluorophenyl)-2,4-dimethyl-1,3-oxazole-5-carboxamide], the EC50 worked out at 310 nM in assay [1] (setting [5]), 300 nM in assay [2], 150 nM in assay [3] and 130 nM in assay [4] (Fibroblast).

`Cc1nc(C)c(C(=O)Nc2ccc(F)c(-n3cc4cc(C(C)(C)C)cnc4n3)c2)o1` [Compound 103, N-(3-{5-tert-butyl-2H-pyrazolo[3,4-b]pyridin-2-yl}-4-fluorophenyl)-2,4-dimethyl-1,3-oxazole-5-carboxamide]: the EC50 is 400 nM in assay [1] (setting [5]), 680 nM in assay [2], 310 nM in assay [3] and 150 nM in assay [4] (Fibroblast).

For the compound `CCC(C)(C)c1cnc2nn(-c3cc(NC(=O)c4oc(C)nc4C)ccc3F)cc2c1` [Compound 104, N-{4-fluoro-3-[5-(2-methylbutan-2-yl)-2H-pyrazolo[3,4-b]pyridin-2-yl]phenyl}-2,4-dimethyl-1,3-oxazole-5-carboxamide], the EC50 came to 2100 nM in assay [1] (setting [5]), 3100 nM in assay [2], 4200 nM in assay [3] and 1200 nM in assay [4] (Fibroblast).

Turning to `CCC(C)c1cnc2nn(-c3cc(NC(=O)c4oc(C)nc4C)ccc3F)cc2c1` (stereo not shown) [Compound 105, N-{3-[5-(butan-2-yl)-2H-pyrazolo[3,4-b]pyridin-2-yl]-4-fluorophenyl}-2,4-dimethyl-1,3-oxazole-5-carboxamide], the EC50 in assay [1] (setting [5]) came out at 890 nM; in assay [2], 720 nM; in assay [3], 380 nM; in assay [4] (Fibroblast) it was 430 nM.

As for `Cc1nc(C)c(C(=O)Nc2ccc(F)c(-n3cc4cc(CC5CCC5)cnc4n3)c2)o1` [Compound 106, N-{3-[5-(cyclobutylmethyl)-2H-pyrazolo[3,4-b]pyridin-2-yl]-4-fluorophenyl}-2,4-dimethyl-1,3-oxazole-5-carboxamide], the EC50 in assay [1] (setting [5]) was 85 nM; in assay [2] it was 130 nM; in assay [3] it was greater than 50000 nM; in assay [4] (Fibroblast) it was 61 nM.

In the case of `Cc1nc(C)c(C(=O)Nc2ccc(F)c(-n3cc4cc(CCC(C)C)cnc4n3)c2)o1` [Compound 107, N-{4-fluoro-3-[5-(3-methylbutyl)-2H-pyrazolo[3,4-b]pyridin-2-yl]phenyl}-2,4-dimethyl-1,3-oxazole-5-carboxamide], the EC50 stood at 130 nM in assay [1] (setting [5]), 220 nM in assay [2], 88 nM in assay [3] and 77 nM in assay [4] (Fibroblast).

Turning to `Cc1nc(C)c(C(=O)Nc2ccc(F)c(-n3cc4cc(-c5ccccn5)cnc4n3)c2)o1` [Compound 108, N-{4-fluoro-3-[5-(pyridin-2-yl)-2H-pyrazolo[3,4-b]pyridin-2-yl]phenyl}-2,4-dimethyl-1,3-oxazole-5-carboxamide], the EC50 was 4 nM in assay [1] (setting [5]), 3.3 nM in assay [2], less than 23 nM in assay [3] and 3.8 nM in assay [4] (Fibroblast).

`CC(C)OC(=O)Nc1cnc2nn(-c3cc(NC(=O)c4ccco4)ccc3F)cc2c1` [Compound 123, propan-2-yl N-{2-[2-fluoro-5-(furan-2-amido)phenyl}-2H-pyrazolo[3,4-b]pyridin-5-yl}carbamate]: the EC50 is 8.9 nM in assay [1] (setting [5]), 9.4 nM in assay [2], less than 23 nM in assay [3] and 4.4 nM in assay [4] (Fibroblast).

Regarding `O=C(Nc1ccc(F)c(-n2cc3cc(Br)cnc3n2)c1)N1CC(F)(F)C1` [Compound 125, N-(3-(5-bromo-2H-pyrazolo[3,4-b]pyridin-2-yl)-4-fluorophenyl)-3,3-difluoroazetidine-1-carboxamide], the EC50 is 31 nM in assay [1], 44 nM in assay [2], less than 23 nM in assay [3] and 34 nM in assay [4].

On to `O=C(Nc1ccc(F)c(-n2cc3cc(Br)cnc3n2)c1)N1CC(F)C1` [Compound 126, N-(3-(5-bromo-2H-pyrazolo[3,4-b]pyridin-2-yl)-4-fluorophenyl)-3-fluoroazetidine-1-carboxamide], for which the concentration for a half-maximal effect (EC50) in assay [1] is 14 nM; in assay [2] it was 24 nM; in assay [3] it was less than 23 nM; in assay [4], 14 nM.

Take `O=C(Nc1ccc(F)c(-n2cc3cc(Br)cnc3n2)c1)N1CC[C@@H](F)C1` [Compound 127, (R)—N-(3-(5-bromo-2H-pyrazolo[3,4-b]pyridin-2-yl)-4-fluorophenyl)-3-fluoropyrrolidine-1-carboxamide]: the EC50 is 17 nM in assay [1] (setting [5]), 25 nM in assay [2], less than 23 nM in assay [3] and 6.8 nM in assay [4] (Fibroblast).

Consider `Cc1nc(C)c(C(=O)Nc2ccc(F)c(-n3cc4cc(Br)cnc4n3)c2)o1` [Compound 128, N-(3-(5-bromo-2H-pyrazolo[3,4-b]pyridin-2-yl)-4-fluorophenyl)-2,4-dimethyloxazole-5-carboxamide], for which the EC50 in assay [1] (setting [5]) was found to be 190 nM; in assay [2], 380 nM; in assay [3], 180 nM; in assay [4] (Fibroblast) it was 140 nM.

With `O=C(Nc1ccc(F)c(-n2cc3cc(Br)cnc3n2)c1)N1CCC1` [Compound 129, N-(3-(5-bromo-2H-pyrazolo[3,4-b]pyridin-2-yl)-4-fluorophenyl)azetidine-1-carboxamide], the EC50 is 31 nM in assay [1], 29 nM in assay [2], less than 23 nM in assay [3] and 15 nM in assay [4].

Take `O=C(Nc1ccc(F)c(-n2cc3cc(Br)cnc3n2)c1)c1ccco1` [Compound 130, N-(3-(5-bromo-2H-pyrazolo[3,4-b]pyridin-2-yl)-4-fluorophenyl)furan-2-carboxamide]: the EC50 came out at 160 nM in assay [1] (setting [5]), 190 nM in assay [2], 40 nM in assay [3] and 36 nM in assay [4] (Fibroblast).

For `O=C(Nc1ccc(F)c(-n2cc3cc(N4CCCC4)cnc3n2)c1)N1CC(F)C1` [Compound 131, 3-fluoro-N-{4-fluoro-3-[5-(pyrrolidin-1-yl)-2H-pyrazolo[3,4-b]pyridin-2-yl]phenyl}azetidine-1-carboxamide], the EC50 in assay [1] (setting [5]) was 5.1 nM; in assay [2], 7 nM; in assay [3], less than 23 nM; in assay [4] (Fibroblast) it was 5.2 nM.

For `O=C(Nc1ccc(F)c(-n2cc3cc(N4CCOCC4)cnc3n2)c1)N1CC(F)C1` [Compound 132, 3-fluoro-N-{4-fluoro-3-[5-(morpholin-4-yl)-2H-pyrazolo[3,4-b]pyridin-2-yl]phenyl}azetidine-1-carboxamide], the EC50 was 7 nM in assay [1] (setting [5]), 11 nM in assay [2], less than 23 nM in assay [3] and 13 nM in assay [4] (Fibroblast).

Take `CN(C)c1cnc2nn(-c3cc(NC(=O)N4CC[C@@H](F)C4)ccc3F)cc2c1` [Compound 133, (3R)-N-{3-[5-(dimethylamino)-2H-pyrazolo[3,4-b]pyridin-2-yl]-4-fluorophenyl}-3-fluoropyrrolidine-1-carboxamide]: the EC50 is 8 nM in assay [1] (setting [5]), 12 nM in assay [2], less than 23 nM in assay [3] and 5.9 nM in assay [4] (Fibroblast).

On to `O=C(Nc1ccc(F)c(-n2cc3cc(N4CCCC4)cnc3n2)c1)N1CC[C@@H](F)C1` [Compound 134, (3R)-3-fluoro-N-{4-fluoro-3-[5-(pyrrolidin-1-yl)-2H-pyrazolo[3,4-b]pyridin-2-yl]phenyl}pyrrolidine-1-carboxamide], for which the EC50 in assay [1] (setting [5]) was 5.4 nM; in assay [2] it was 23 nM; in assay [3] it was less than 23 nM; in assay [4] (Fibroblast) it was 20 nM.

For the compound `O=C(Nc1ccc(F)c(-n2cc3cc(N4CCOCC4)cnc3n2)c1)N1CC[C@@H](F)C1` [Compound 135, (3R)-3-fluoro-N-{4-fluoro-3-[5-(morpholin-4-yl)-2H-pyrazolo[3,4-b]pyridin-2-yl]phenyl}pyrrolidine-1-carboxamide], the EC50 is 8.6 nM in assay [1] (setting [5]), 4.6 nM in assay [2], less than 23 nM in assay [3] and 6.6 nM in assay [4] (Fibroblast).

As to `CC(C)OC(=O)Nc1cnc2nn(-c3cc(NC(=O)N4CC[C@@H](F)C4)ccc3F)cc2c1` [Compound 136], the EC50 was 19 nM in assay [1] (setting [5]), 30 nM in assay [2], less than 23 nM in assay [3] and 170 nM in assay [4] (Fibroblast).

For `O=C(Nc1ccc(F)c(-n2cc3cc(N4CCOCC4)cnc3n2)c1)N1CCC1` [Compound 137, N-{4-fluoro-3-[5-(morpholin-4-yl)-2H-pyrazolo[3,4-b]pyridin-2-yl]phenyl}azetidine-1-carboxamide], the EC50 in assay [1] (setting [5]) is 6 nM; in assay [2], 8.8 nM; in assay [3], less than 23 nM; in assay [4] (Fibroblast), 5.1 nM.
